Laboratory results published in BindingDB's records for doi:10.7270/Q2251GJ9 (The Scripps Research Institute Molecular Screening Center, 2007).
Counter-ions that a name gives are not always drawn.

target: Sphingosine 1-phosphate receptor 1 (Homo sapiens, UniProt P21453); experiment: S1P1 receptor agonists, dose response, cell-based, agonist mode, 60K MLSMR set (AID 468); conditions: not given
Sequence (P21453 whole entry): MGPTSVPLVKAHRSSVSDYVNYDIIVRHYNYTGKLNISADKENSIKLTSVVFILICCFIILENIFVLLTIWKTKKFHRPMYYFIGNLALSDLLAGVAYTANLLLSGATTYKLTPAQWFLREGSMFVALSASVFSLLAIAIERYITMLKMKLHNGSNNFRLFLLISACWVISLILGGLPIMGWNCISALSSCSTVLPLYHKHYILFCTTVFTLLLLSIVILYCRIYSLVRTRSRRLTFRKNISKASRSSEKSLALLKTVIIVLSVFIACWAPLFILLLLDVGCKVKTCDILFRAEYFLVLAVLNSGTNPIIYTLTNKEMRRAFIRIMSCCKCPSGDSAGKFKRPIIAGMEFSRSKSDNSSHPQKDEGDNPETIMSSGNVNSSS

EC50 [µM] | SMILES
4.74 | O=C(Nc1cccc(C(F)(F)F)c1)C1CCCN1S(=O)(=O)c1cccc2cccnc12 (configuration not stated) [1-(8-quinolinylsulfonyl)-N-[3-(trifluoromethyl)phenyl]-2-pyrrolidinecarboxamide]
9.86 | O=C(Nc1ccc(C(F)(F)F)cc1)C1CCCN1S(=O)(=O)c1cccc2cccnc12 (configuration not stated) [1-(8-quinolinylsulfonyl)-N-[4-(trifluoromethyl)phenyl]-2-pyrrolidinecarboxamide]
7.58 | Cc1cc(C(=O)CSc2nnc(-c3ccco3)o2)c(C)n1-c1ccc2c(c1)OCCO2 [1-[1-(2,3-dihydro-1,4-benzodioxin-6-yl)-2,5-dimethyl-3-pyrrolyl]-2-[[5-(2-furanyl)-1,3,4-oxadiazol-2-yl]thio]ethanone]
2.23 | Cc1cc(C(=O)CSc2nnnn2C)c(C)n1-c1cccc(F)c1 [1-[1-(3-fluorophenyl)-2,5-dimethyl-3-pyrrolyl]-2-[(1-methyl-5-tetrazolyl)thio]ethanone]
2.03 | COc1ccc(-n2c(C)cc(C(=O)CSc3nnc(-c4cccs4)o3)c2C)cc1 [1-[1-(4-methoxyphenyl)-2,5-dimethyl-3-pyrrolyl]-2-[(5-thiophen-2-yl-1,3,4-oxadiazol-2-yl)thio]ethanone]
6.76 | Cc1csc(SCC(=O)c2cc(C)n(Cc3cccs3)c2C)n1 [1-[2,5-dimethyl-1-(2-thenyl)pyrrol-3-yl]-2-[(4-methylthiazol-2-yl)thio]ethanone]
4.77 | Cc1ccc(-n2c(C)cc(C(=O)CSc3nnnn3C)c2C)cc1 [1-[2,5-dimethyl-1-(4-methylphenyl)-3-pyrrolyl]-2-[(1-methyl-5-tetrazolyl)thio]ethanone]
4.18 | Cc1cc(C)n2nc(SCC(=O)c3cc(C)n(-c4cc(C)on4)c3C)nc2n1 [1-[2,5-dimethyl-1-(5-methyl-1,2-oxazol-3-yl)pyrrol-3-yl]-2-[(5,7-dimethyl-[1,2,4]triazolo[1,5-a]pyrimidin-2-yl)sulfanyl]ethanone]
6.81 | CC(Oc1ccccc1Br)C(=O)N1CCc2ccccc21 (configuration not stated) [1-[2-(2-bromophenoxy)propanoyl]indoline]
9.82 | Cc1ccc(OCCn2cc(C(=N)NO)c3ccccc32)cc1C [1-[2-(3,4-dimethylphenoxy)ethyl]-N'-hydroxy-1H-indole-3-carboximidamide]
9.02 | CCOc1ccc(-c2nc(CSCC(=O)N3CCN(c4cccc(OC)c4)CC3)c(C)o2)cc1 [1-[4-(3-methoxyphenyl)piperazino]-2-[(5-methyl-2-p-phenetyl-oxazol-4-yl)methylthio]ethanone]
4.27 | Cc1nnc(SCC(=O)N2CCC(c3noc4ccc(F)cc34)CC2)s1 [1-[4-(5-fluoranyl-1,2-benzoxazol-3-yl)piperidin-1-yl]-2-[(5-methyl-1,3,4-thiadiazol-2-yl)sulfanyl]ethanone]
4.62 | Fc1ccccc1COc1ccc(C=Nn2cnnc2)cc1 [1-[4-[(2-fluorophenyl)methoxy]phenyl]-N-(1,2,4-triazol-4-yl)methanimine]
8.28 | Fc1ccc(COc2ccc(C=Nn3cnnc3)cc2)cc1 [1-[4-[(4-fluorophenyl)methoxy]phenyl]-N-(1,2,4-triazol-4-yl)methanimine]
4.94 | COc1ccc(C(c2c(O)ccc3ccccc23)N2CCOCC2)c(OC)c1 (configuration not stated) [1-[(2,4-dimethoxyphenyl)-(4-morpholinyl)methyl]-2-naphthalenol]
2.35 | Cc1ccc(-c2csc3ncnc(Sc4nnc(CN5CCCCCC5=O)o4)c23)cc1 [1-[[5-[5-(4-methylphenyl)thieno[2,3-d]pyrimidin-4-yl]sulfanyl-1,3,4-oxadiazol-2-yl]methyl]azepan-2-one]
> 10 | Nc1nnnn1N=C/C(Br)=C/c1ccccc1 [1-[[(Z)-2-bromanyl-3-phenyl-prop-2-enylidene]amino]-1,2,3,4-tetrazol-5-amine]
> 95 | COc1cc2c(cc1OC)C(C)N(C(=O)c1cc3ccccc3o1)CC2 (configuration not stated) [1-benzofuran-2-yl-(6,7-dimethoxy-1-methyl-3,4-dihydro-1H-isoquinolin-2-yl)methanone]
> 95 | O=C(NCc1ccc2c(c1)OCO2)C1CC(=O)N(C2CCCCCCC2)C1 (configuration not stated) [1-cyclooctyl-5-keto-N-piperonyl-pyrrolidine-3-carboxamide]
1.15 | Cn1c(-c2c(N)n(C3CCCC3)c3nc4ccccc4nc23)nc2ccccc21 [1-cyclopentyl-3-(1-methyl-2-benzimidazolyl)-2-pyrrolo[3,2-b]quinoxalinamine]
2.74 | C=CS(=O)(=O)c1ccc(Oc2ccc(S(=O)(=O)C=C)cc2)cc1 [1-ethenylsulfonyl-4-(4-ethenylsulfonylphenoxy)benzene]
4.8 | O=C(c1ccccc1)C(CCC(CN1CCOCC1)C(=O)c1ccccc1)CN1CCOCC1 (configuration not stated) [2,5-bis(4-morpholinylmethyl)-1,6-diphenylhexane-1,6-dione;hydrochloride]
13.4 | CCCCc1ccc(C2C(C#N)C(=N)SC(=N)C2C#N)s1 (configuration not stated) [2,6-bis(azanyl)-4-(5-butylthiophen-2-yl)-4H-thiopyran-3,5-dicarbonitrile]
> 95 | COCCn1c(C)cc(C(=O)CSc2nc3ccccc3o2)c1C [2-(1,3-benzoxazol-2-ylsulfanyl)-1-[1-(2-methoxyethyl)-2,5-dimethyl-pyrrol-3-yl]ethanone]
1.02 | O=C(CSc1nc2ccccc2o1)Nc1ccc(N2CCOCC2)c(Cl)c1 [2-(1,3-benzoxazol-2-ylsulfanyl)-N-(3-chloranyl-4-morpholin-4-yl-phenyl)ethanamide]
5.96 | CCCCn1nnnc1SCC(=O)c1ccc(C)c(C)c1 [2-(1-Butyl-1H-tetrazol-5-ylsulfanyl)-1-(3,4-dimethyl-phenyl)-ethanone]
2.02 | CCC(C)c1ccc2oc(-c3ccc(NC(=O)Cn4cnc5c(=O)n(C)c(=O)n(C)c54)cc3)nc2c1 (configuration not stated) [2-(2,6-diketo-1,3-dimethyl-purin-9-yl)-N-[4-(5-sec-butyl-1,3-benzoxazol-2-yl)phenyl]acetamide]
> 95 | Clc1ccc(OCc2nnc(-c3ccccc3Br)o2)c(Cl)c1 [2-(2-bromophenyl)-5-[(2,4-dichlorophenoxy)methyl]-1,3,4-oxadiazole]

SMILES | EC50 [µM]
CCn1nc(-c2ccccc2)nc2c(=O)n(C)c(=O)nc1-2 [1-Ethyl-6-methyl-3-phenyl-1H-pyrimido[5,4-e][1,2,4]triazine-5,7-dione] | 3.55
CCn1nc(-c2cccs2)nc2c(=O)n(C)c(=O)nc1-2 [1-ethyl-6-methyl-3-thiophen-2-yl-pyrimido[5,4-e][1,2,4]triazine-5,7-dione] | > 10

same assay, conditions: inactive by the depositor's call

EC50 [µM] | SMILES
38.9 | O=C(C1CCC1)N1CCc2cc(S(=O)(=O)Nc3ccc4c(c3)OCCO4)ccc21 [1-(cyclobutanecarbonyl)-N-(2,3-dihydro-1,4-benzodioxin-6-yl)-2,3-dihydroindole-5-sulfonamide]
14 | O=C(C1CC1)N1CCc2cc(S(=O)(=O)NCC3COc4ccccc4O3)ccc21 (configuration not stated) [1-(cyclopropanecarbonyl)-N-(2,3-dihydro-1,4-benzodioxin-3-ylmethyl)-2,3-dihydroindole-5-sulfonamide]
15.6 | COc1ccc(-n2c(C)c(C(C)=O)c3cc(O)ccc32)cc1 [1-[1-(4-methoxyphenyl)-2-methyl-5-oxidanyl-indol-3-yl]ethanone]
11.4 | CCN(CC)c1ccc(-n2c(C)c(C(C)=O)c(C(C)=O)c2C)cc1 [1-[1-[4-(diethylamino)phenyl]-4-ethanoyl-2,5-dimethyl-pyrrol-3-yl]ethanone]
10.6 | O=C(NCc1ccco1)C1CCN(C(=O)c2cc3sccc3n2Cc2ccc(Cl)cc2)CC1 [1-[4-(4-chlorobenzyl)thieno[3,2-b]pyrrole-5-carbonyl]-N-(2-furfuryl)isonipecotamide]
10.5 | CC(C)(CC(=O)N1CCN(c2ccc(Cl)cc2)CC1)CC1=NS(=O)(=O)c2ccccc2N1 [1-[4-(4-chlorophenyl)-1-piperazinyl]-4-(1,1-dioxo-4H-1,2,4-benzothiadiazin-3-yl)-3,3-dimethyl-1-butanone]
11.9 | CCCC(=O)c1ccc(N2CCN(C(=O)c3ccccc3Br)CC2)c(F)c1 [1-[4-[4-(2-bromobenzoyl)piperazin-1-yl]-3-fluorophenyl]butan-1-one]
29.4 | CC(=O)c1ccc(N2CCN(c3ccc(C(F)(F)F)cn3)CC2)cc1 [1-[4-[4-[5-(trifluoromethyl)-2-pyridinyl]-1-piperazinyl]phenyl]ethanone]
26.2 | CC(=O)N1C=CN(C(C)=O)C(c2cn(C)c3ccccc23)C1c1cn(C)c2ccccc12 (configuration not stated) [1-[4-acetyl-2,3-bis(1-methyl-3-indolyl)-2,3-dihydropyrazin-1-yl]ethanone]
11.8 | CCc1ccc(-c2nc(CSCC(=O)N3CCN(c4ccccn4)CC3)c(C)o2)cc1 [1-[({[2-(4-ethylphenyl)-5-methyl-1,3-oxazol-4-yl]methyl}thio)acetyl]-4-pyridin-2-ylpiperazine]
13.6 | Cc1cccc(-c2nc(CSCC(=O)N3CCN(c4ccccn4)CC3)c(C)o2)c1 [1-[({[5-methyl-2-(3-methylphenyl)-1,3-oxazol-4-yl]methyl}thio)acetyl]-4-pyridin-2-ylpiperazine]
14.5 | CC(=O)N1CCCc2cc(S(=O)(=O)NCCC3=CCCCC3)ccc21 [1-acetyl-N-(2-cyclohex-1-en-1-ylethyl)-1,2,3,4-tetrahydroquinoline-6-sulfonamide]
13.9 | Cc1nn(Cc2ccccc2)c(C)c1C(=O)OCC(=O)c1cc(C)n(C2CC2)c1C [1-benzyl-3,5-dimethyl-pyrazole-4-carboxylic acid [2-(1-cyclopropyl-2,5-dimethyl-pyrrol-3-yl)-2-keto-ethyl] ester]
11 | Cc1nc(C)c(C(=O)Nc2ccc(Oc3ccccc3)cc2)o1 [2,4-dimethyl-N-(4-phenoxyphenyl)-1,3-oxazole-5-carboxamide]
57.8 | CC1CCc2nc(NC(=O)CSc3nc4ccccc4o3)sc2C1 (configuration not stated) [2-(1,3-benzoxazol-2-ylsulfanyl)-N-(6-methyl-4,5,6,7-tetrahydro-1,3-benzothiazol-2-yl)acetamide]
10.3 | COc1ccc(-n2c(C)cc(C(=O)COC(=O)Cn3cnc4ccccc43)c2C)cc1 [2-(1-benzimidazolyl)acetic acid [2-[1-(4-methoxyphenyl)-2,5-dimethyl-3-pyrrolyl]-2-oxoethyl] ester]

SMILES | EC50 [µM]
CCCCCn1c(=O)c(C(=O)NCc2ccncc2)c(O)c2ccccc21 [1-amyl-2-hydroxy-4-keto-N-(4-pyridylmethyl)quinoline-3-carboxamide] | 19.8
